How the values were obtained:
Nrf2 = test: In vitro gene expression of Nrf2 (RT-PCR) in HepG2; format: cell-based, Human; details: HepG2, 250 μg/ml; cell control 1.00
Protocol: Nrf2 were estimated for the test substance by gene expression method, where the level of expression of Nrf2 expression on Human Hepatocytes (HepG2) was determined with respect to untreated HepG2 cells. The HepG2 cells treated with drug were subjected to cell lysis by treating with Tri-extract reagent. Chloroform was added, to isolate the total RNA from the sample and subjected for centrifugation. […] After the incubation followed by centrifugation, appropriate volume of ethanol was added to resuspend the pellet. After incubation and centrifugation, the pellet was air dried and appropriate volume of TAE buffer was added. […] The cDNA thus synthesized was taken up for Polymerase chain reaction (PCR) for the amplification of Nrf2 and Glyceraldehyde 3-phosphate dehydrogenase GAPDH (internal control). The mRNA expression levels of Nrf2 were determined using semi-quantitative reverse transcriptase-polymerase chain reaction (RT-PCR). 50 μl of the reaction mixture was subjected to PCR for amplification of Nrf2. cDNAs using specifically designed primers procured from Eurofins, India and as an internal control GAPDH (House keeping gene) was co-amplified with each reaction. Nrf2: 95° C. for 5 min followed by 35 cycles of denaturation at 95° C. for 30 seconds, annealing Tm for 30 seconds and extension at 72° C. for 45 seconds. This was followed by final extension at 72° C. for 10 min.

[1] = tested on: carrageenan induced rat paw edema; test: Carrageenan induced rat paw edema model (acute anti-inflammatory activity); format: in vivo; details: for % inhibition of paw edema at 6th hr.: pretreated 1 hr before, L-EGT 0.512 mg/kg, NMN chloride 12.33 mg/kg, combination 0.512+12.33 mg/kg bw, vs positive control; for paw edema compared with Positive control group (G2): result in words
Protocol: In study thirty (30) rats, were divided into total […] groups. […] G3-G4 groups are referred as test substances. Acute anti inflammatory activity was measured using carrageenan induced rat paw edema model. Acute inflammation was induced by the sub planter administration of 0.1 ml of 1% carrageenan (0.9% NaCl solution) in the right hind paw of the rats. Group 1 was treated with normal saline. Group 2 positive control was treated with normal saline (with paw edema induction). Group 3, Group 4 and Group 5 were treated with test substance (G1—0.512 mg/kg, G2—12.33 mg/kg and G3-0.512 mg/kg+12.33 mg/kg bw) respectively. Excluding control group, all groups were pretreated 1 hr before eliciting paw edema. […] The perimeter of paw was measured by using vernier calipers. After the completions of the paw volume measurement animals were anesthetized and blood was collected for biochemical parameter analysis. The anti-inflammatory activity was calculated by following formula % inhibition of edema=((T−T0)/T)×100 T: Thickness of paw in positive control group T0: Thickness of paw edema in the test compound treated groups. The values were expressed in Mean±SEM. The significance of in vivo data was analyzed by One way anova followed by Dunnet test. P<0.05 was considered as statistically significant

HepG2 cell line = test: In vitro cytotoxicity (MTT) against HepG2 cell line; format: cell-based, Human; details: 72 h
Protocol: In-vitro cytotoxicity of the nutrients, G3, G4 and G5 were tested against HepG2 cell line. Nutrients were taken at concentrations ranging from 1000 μg/ml to 62.5 μg/ml to determine the percentage growth inhibition of individual substance on HepG2 cell line. The samples G3 and G4 produced a CTC50 value of above 1000 μg/ml. […] [Journal of Immunological Methods, 1986; 89:271-277].
The in vitro cytotoxicity was performed for samples G3, G4 and G5 on HepG2 to find toxic concentration and to determine the apoptotic activity of G3, G4 and G5.
(§1) For cytotoxicity studies, 10 mg of test substance was separately dissolved and volume was made up with MEM supplemented with 2% inactivated FBS to obtain a stock solution of 1 mg/ml concentration and sterilized by 0.22μ syringe filtration. Serial two fold dilutions were prepared from this for carrying out cytotoxic studies.
(§2) HepG2 (Human Hepatocyte) cell line was procured from National Centre for Cell Sciences (NCCS), Pune, India. Stock cells were cultured in MEM supplemented with 10% inactivated Fetal Bovine Serum (FBS), penicillin (100 IU/ml), streptomycin (100 μg/ml) and amphotericin B (5 μg/ml) in an humidified atmosphere of 5% CO2 at 7° C. until confluent. The cells were dissociated with TPVG solution (0.2% trypsin, 0.02% EDTA, 0.05% glucose in PBS). The stock cultures were grown in 25 cm^2 culture flasks and all experiments were carried out in 96 microtitre plates (Tarsons India Pvt. Ltd., Kolkata, India).
The monolayer cell culture was trypsinized and the cell count was adjusted to 100,000 cells/ml using DMEM-HG containing 10% FBS. To each well of the 96 well microtitre plate, 0.1 ml of the diluted cell suspension was added. After 24 h, when a partial monolayer was formed, the supernatant was flicked off, washed the monolayer once with medium and 100 μl of different test concentrations of test substances were added on to the partial monolayer in microtitre plates. The plates were then incubated at 37° C. for 3 days in 5% CO2 atmosphere, and microscopic examination was carried out and observations were noted every 24 h interval. After 72 h, the substance solutions in the wells were discarded and 50 μl of MTT in PBS was added to each well. The plates were gently shaken and incubated for 3 h at 37° C. in 5% CO2 atmosphere. The supernatant was removed and 100 μl of propanol was added and the plates were gently shaken to solubilize the formed formazan. The absorbance was measured using a microplate reader at a wavelength of 540 nm. The percentage growth inhibition was calculated using the standard formula and concentration of test substance needed to inhibit cell growth by 50% (CTC50) values is generated from the dose-response curves for each cell line.
as §1, with “substance powder” for “substance”, “with DMEM” for “with MEM”, “of 10” for “of 1”
as §2, with “DMEM” for “MEM”, “37°” for “7°”, “cm2” for “cm^2”
The monolayer cell culture was trypsinized and the cell count was adjusted to 100,000 cells/ml using medium containing 10% FBS. To each well of the 96 well microtitre plate, 0.1 ml of the diluted cell suspension was added. […]

IL-6 = test: Serum IL-6 levels in carrageenan paw edema rats; format: in vivo, Rat; details: for IL-6: rat serum after paw volume measurement, Mean±SEM; for Serum interleukin-6 compared with positive control (G2) / Percentage inhibition over control (serum IL-6): rat serum; for Serum interleukin-6 compared with positive control (G2): result in words; for Percentage inhibition over control (serum IL-6): vs positive control
Protocol: (§3) Acute anti inflammatory activity was measured using carrageenan induced rat paw edema model. Acute inflammation was induced by the sub planter administration of 0.1 ml of 1% carrageenan (0.9% NaCl solution) in the right hind paw of the rats. Group 1 was treated with normal saline. Group 2 positive control was treated with normal saline (with paw edema induction). Group 3, Group 4 and Group 5 were treated with test substance (G1—0.512 mg/kg, G2—12.33 mg/kg and G3-0.512 mg/kg+12.33 mg/kg bw) respectively. Excluding control group, all groups were pretreated 1 hr before eliciting paw edema. The linear paw circumference was measured at Time intervals: 0, 30, 60, 120, 180 and 240 mins. The perimeter of paw was measured by using vernier calipers. After the completions of the paw volume measurement animals were anesthetized and blood was collected for biochemical parameter analysis. The values were expressed in Mean±SEM. The significance of in vivo data was analyzed by One way anova followed by Dunnet test. P<0.05 was considered as statistically significant

TNF-Alpha = test: Serum TNF-Alpha levels in carrageenan paw edema rats; format: in vivo, Rat; details: for TNF-Alpha: rat serum after paw volume measurement, Mean±SEM; for Serum TNF-Alpha compared with positive control (G2) / Percentage inhibition over control (serum TNF-Alpha): rat serum; for Serum TNF-Alpha compared with positive control (G2): result in words; for Percentage inhibition over control (serum TNF-Alpha): vs positive control
Protocol: as §3

HepG2 cells = test: DNA fragmentation (DNA ladder assay) in HepG2 cells; format: cell-based, Human
Protocol: FIG. 3 depicts DNA ladder assay of test substances on HepG2 cell line; L=100 bp Ladder, Lane 1=AAPH (1 mM), Lane 2=cell control, Lane 3=G3 (250 μg/ml), Lane 4=G4(250 μg/ml), Lane 5=G5 (5:125-250 μg/ml), Lane 6=G3+AAPH, Lane 7=G4+AAPH, Lane 8=G5+AAPH
HepG2 cells (3×10^6/ml) were seeded into 60 mm petri dishes and incubated at 37° C. with 5% CO2 atmosphere for 24 h. The cells were washed with medium and were treated with extract, standard substance and incubated at 37° C., 5% CO2 for 24 hrs. At the incubation time ended, the chromosomal DNA of cancer cells was prepared with G Biosciences, USA apoptotic DNA ladder kit. Total genomic DNA was extracted and resolved on a 1% agarose gel. Apoptotic DNA fragmentation was visualized by ethidium bromide staining under UV transilluminator and photographed. (FIG. 3)

Compound	Regulation in Terms of Folds (gene expression level of Nrf2 normalized to GAPDH) (Nrf2) [Folds]	% inhibition of paw edema at 6th hr. [1] [%]	paw edema compared with Positive control group (G2) [1]	IL-6 (IL-6) [pg/mL]	Serum interleukin-6 compared with positive control (G2) (IL-6)	Percentage inhibition over control (serum IL-6) (IL-6) [%]	TNF-Alpha (TNF-Alpha) [pg/mL]	Serum TNF-Alpha compared with positive control (G2) (TNF-Alpha)	Percentage inhibition over control (serum TNF-Alpha) (TNF-Alpha) [%]	DNA fragmentation (HepG2 cells; HepG2, 250 μg/ml, 24 hrs)	further results
C[N+](C)(C)[C@@H](Cc1c[nH]c(=S)[nH]1)C(=O)[O-] [L-Ergothioneine]	>1.0	35.08	significant decreases paw edema	85.25 ± 0.30	significantly decreased	15.74	201.5 ± 1.96	significantly decreased	13.21	did not exhibit any fragmentation of DNA	inhibition at 62.5 µg/mL (HepG2 cell line; Homo sapiens, Test Conc. 62.5 μg/ml): 6.62 ± 0.88%; inhibition at 125 µg/mL (HepG2 cell line; Homo sapiens, Test Conc. 125 μg/ml): 11 ± 1.31%; inhibition at 250 µg/mL (HepG2 cell line; Homo sapiens, Test Conc. 250 μg/ml): 19 ± 1.05%; inhibition at 1000 µg/mL (HepG2 cell line; Homo sapiens, Test Conc. 1000 μg/ml): 30 ± 1.52%; IC50 (HepG2 cell line; Homo sapiens, concentration needed to inhibit cell growth by 50%, read-out: CTC 50 in μg/ml): > 1000 µg/mL
Nicotinamide mononucleotide chloride	>1.0	40.80	significant decreases paw edema	79.55 ± 0.95	significantly decreased	21.34	185.2 ± 4.37	significantly decreased	20.18	did not exhibit any fragmentation of DNA	% Inhibition (HepG2 cell line; Test Conc. 62.5 μg/ml): 5.26 ± 1.5%; % Inhibition (HepG2 cell line; Test Conc. 125 μg/ml): 11.15 ± 3.32%; % Inhibition (HepG2 cell line; Test Conc. 250 μg/ml): 17.56 ± 1.16%; % Inhibition (HepG2 cell line; Test Conc. 500 μg/ml): 24.19 ± 1.59%; % Inhibition (HepG2 cell line; Test Conc. 1000 μg/ml): 31.49 ± 0.79%
CC(C)(N=NC(C)(C)C(=N)N)C(=N)N.Cl.Cl [AAPH, 2,2′-azobis(2-amidinopropane)dihydrochloride, reference compound]	–	–	–	–	–	–	–	–	–	–	DNA fragmentation (HepG2 cells; HepG2, AAPH (1 mM)): showed a smear in the gel indicating the DNA fragmentation

Reference: US11013710B2, “Synergistic compositions of bioactive agents for optimizing cellular health” (CELAGENEX RESEARCH (INDIA) PVT. LTD., priority 2018, dated 2021)
